Data taken from paper PMC7893122 (Acta Pharmaceutica Sinica. B, 2020).

Tests used:
[1] = target: BRD4 (BD1) (Homo sapiens, UniProt O60885); assay: Homogeneous time-resolved fluorescence binding assay, BRD4; settings: for IC50: IC50 BRD4 (BD1), mean ± SD from three separate experiments
[2] = tested on: HH signaling pathway (GLI-responsive firefly luciferase reporter); assay: Dual luciferase reporter assay; type: cell-based; settings: for IC50: read-out: IC50 GLI-luc reporter
[3] = target: hERG channel (Homo sapiens, UniProt Q12809); assay: hERG inhibition; type: cell-based
[4] = Pharmacokinetics in Sprague–Dawley rats; type: in vivo; settings: rat
[5] = Sprague-Dawley, plasma, iv, 1 mg/kg
[6] = Sprague-Dawley, plasma, po, 3 mg/kg

hERG channel, sequence (Q12809 whole entry): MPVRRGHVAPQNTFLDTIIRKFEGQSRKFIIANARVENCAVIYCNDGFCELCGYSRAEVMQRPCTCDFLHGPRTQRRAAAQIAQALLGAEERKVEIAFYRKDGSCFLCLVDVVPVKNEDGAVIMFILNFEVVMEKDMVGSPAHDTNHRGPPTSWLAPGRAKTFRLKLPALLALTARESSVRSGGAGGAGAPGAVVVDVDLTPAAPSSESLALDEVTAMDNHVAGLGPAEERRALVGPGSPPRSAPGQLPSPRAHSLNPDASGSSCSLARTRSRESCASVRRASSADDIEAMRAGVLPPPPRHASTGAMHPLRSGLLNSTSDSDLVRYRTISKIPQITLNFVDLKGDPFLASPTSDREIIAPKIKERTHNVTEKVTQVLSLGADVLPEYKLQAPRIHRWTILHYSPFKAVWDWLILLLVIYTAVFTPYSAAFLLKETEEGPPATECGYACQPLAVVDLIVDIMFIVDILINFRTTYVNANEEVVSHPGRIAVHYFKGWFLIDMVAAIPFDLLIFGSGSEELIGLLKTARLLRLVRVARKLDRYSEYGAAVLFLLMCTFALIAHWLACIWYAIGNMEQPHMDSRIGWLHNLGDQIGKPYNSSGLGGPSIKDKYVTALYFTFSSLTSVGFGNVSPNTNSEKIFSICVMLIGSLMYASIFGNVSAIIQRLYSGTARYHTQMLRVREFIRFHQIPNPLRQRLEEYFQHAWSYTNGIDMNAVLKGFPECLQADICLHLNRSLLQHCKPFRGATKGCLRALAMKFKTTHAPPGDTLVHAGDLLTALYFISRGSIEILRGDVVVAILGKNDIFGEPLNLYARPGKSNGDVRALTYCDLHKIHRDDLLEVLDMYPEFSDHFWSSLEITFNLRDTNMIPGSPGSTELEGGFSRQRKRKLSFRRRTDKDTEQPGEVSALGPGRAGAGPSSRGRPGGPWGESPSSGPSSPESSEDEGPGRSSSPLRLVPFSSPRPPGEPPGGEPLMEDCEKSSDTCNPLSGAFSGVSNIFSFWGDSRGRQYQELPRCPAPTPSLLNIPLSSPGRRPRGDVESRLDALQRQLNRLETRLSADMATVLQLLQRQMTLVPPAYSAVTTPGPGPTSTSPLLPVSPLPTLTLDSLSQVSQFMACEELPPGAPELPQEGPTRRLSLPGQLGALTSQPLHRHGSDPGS

SMILES | IC50 [1] [nM] | IC50 [2] [nM] | further results
CCOC(=O)Nc1cc(-c2cc(NS(=O)(=O)CC)ccc2Oc2ccc(F)cc2F)cn(C)c1=O [Compound 5] | 27.6 ± 5.7 | 157 ± 1.3 | fold less potent than compound 2 against BRD4 ([1]; ratio of IC50 values): 8 fold
CCS(=O)(=O)Nc1ccc(Oc2ccc(F)cc2F)c(-c2cc(NC(=O)OCCOC)c(=O)n(C)c2)c1 [Compound 6] | > 100 | > 100 | –
CCCC(=O)Nc1cc(-c2cc(NS(=O)(=O)CC)ccc2Oc2ccc(F)cc2F)cn(C)c1=O [Compound 7] | > 100 | > 100 | –
CCS(=O)(=O)Nc1ccc(Oc2ccc(F)cc2F)c(-c2cc(NS(=O)(=O)CC)c(=O)n(C)c2)c1 [Compound 8] | 42.8 ± 9.6 | > 100 | –
CCS(=O)(=O)Nc1ccc(Oc2ccc(F)cc2F)c(-c2cc(Nc3ncc[nH]3)c(=O)n(C)c2)c1 [Compound 9] | 47.6 ± 2.9 | > 100 | –
CCS(=O)(=O)Nc1ccc(Oc2ccc(F)cc2F)c(-c2cc(Nc3ccccn3)c(=O)n(C)c2)c1 [Compound 10] | > 100 | > 100 | –
CCS(=O)(=O)Nc1ccc(Oc2ccc(F)cc2F)c(-c2cc(Nc3ccncn3)c(=O)n(C)c2)c1 [Compound 11] | > 100 | > 100 | –

Compounds with a lower IC50 [1], results first:

IC50 [1] [nM] | IC50 [2] [nM] | SMILES | further results
18.2 ± 2.7 | 32.1 ± 7.71 | COc1nnc2ccc(N3CCC(c4ccc(OCCN5CCN(C)C(=O)[C@H]5C)cc4)CC3)nn12 [AZD5153 (4), (3R)-4-[2-[4-[1-(3-methoxy-[1,2,4]triazolo[4,3-b]pyridazin-6-yl)-4-piperidyl]phenoxy]ethyl]-1,3-dimethyl-piperazin-2-one, reference compound] | –
< 0.16 | 0.15 ± 0.05 | Cc1nnn(C)c1-c1cnc2c3ccc(C(C)(C)O)cc3n([C@H](c3ccccc3)C3CCOCC3)c2c1 [BMS-986158 (1), reference compound] | –
3.4 ± 0.2 | 0.41 ± 0.34 | CCS(=O)(=O)Nc1ccc(Oc2ccc(F)cc2F)c(-c2cn(C)c(=O)c3[nH]ccc23)c1 [Compound 2, N-(4-(2,4-difluorophenoxy)-3-(6-methyl-7-oxo-6,7-dihydro-1H-pyrrolo[2,3-c]pyridin-4-yl)phenyl)ethanesulfonamide, reference compound] | fold selectivity for the HH pathway against BRD4 (fold less potent against BRD4) ([2]; BRD4 (BD1) IC50 vs GLI-luc IC50): ~10 fold; IC50 [3]: 35500 nM; AUC(0-inf) [4, 5]: 1200 ng·h/mL; AUC(0-t) [4, 5]: 1190 ng·h/mL; MRT inf [4, 5]: 3.11 h; clearance [4, 5]: 17.6 mL/min/kg; half-life [4, 5]: 2.74 h; AUC(0-inf) [4, 6]: 2050 ng·h/mL; AUC(0-t) [4, 6]: 2030 ng·h/mL; Cmax [4, 6]: 401 ng/mL; MRT inf [4, 6]: 5.45 h; Tmax [4, 6]: 2.75 h; half-life [4, 6]: 3.34 h; Vss_obs ([4]; i.v. 1 mg/kg): 2.772 L/kg
0.25 ± 0.05 | 3.29 ± 0.14 | Cn1cc(-c2cc(N3CCC(CO)S3(=O)=O)ccc2Oc2ccc(F)cc2F)c2cc[nH]c2c1=O (stereo not drawn) [Compound 12] | –
0.6 ± 0.07 | 20.5 ± 7.74 | Cn1cc(-c2cc(N3CCCC(CO)S3(=O)=O)ccc2Oc2ccc(F)cc2F)c2cc[nH]c2c1=O (stereo not drawn) [Compound 13] | –
1.52 ± 0.72 | 56.1 ± 8.25 | CN(C)CCN1CCCN(c2ccc(Oc3ccc(F)cc3F)c(-c3cn(C)c(=O)c4[nH]ccc34)c2)S1(=O)=O [Compound 18] | –
1.47 ± 0.03 | 17.7 ± 11 | Cn1cc(-c2cc(N3CCCN(CCN4CCOCC4)S3(=O)=O)ccc2Oc2ccc(F)cc2F)c2cc[nH]c2c1=O [Compound 19] | –
1.01 ± 0.34 | 42.8 ± 30.7 | CN(CCO)CCN1CCCN(c2ccc(Oc3ccc(F)cc3F)c(-c3cn(C)c(=O)c4[nH]ccc34)c2)S1(=O)=O [Compound 20] | –
